# Assay results published in the supplement of paper PMC10307832.
# Columns and labels:
# Assay in all cases: relative viability (nuclei count vs DMSO), 5 days (fraction); higher = more cells survive
# SK-MES-1 = tested on: SK-MES-1
# Method in brief: (§1)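 Lung cancer cell lines in 1536-well plates were dosed by pin tool the day after seeding, either with one drug alone or with a fixed anchor-drug dose plus five library-drug doses (not always all listed) in √10 steps. After 5 days, cells were fixed and their nuclei stained in one step (final 0.05% Triton X-100, 1% formaldehyde, 1 ug/ml Hoechst), then counted on 4× images. Relative viability is the nuclei count in treated wells divided by that in vehicle wells. Values are medians of duplicate plates.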
# NCI-H1651 = tested on: NCI-H1651
# Method in brief: as §1
# NCI-H460 = tested on: NCI-H460
# Method in brief: as §1
# LCLC-103H = tested on: LCLC-103H
# Method in brief: as §1
# NCI-H1355 = tested on: NCI-H1355
# Method in brief: as §1
# PC-14 = tested on: PC-14
# Method in brief: as §1
# NCI-H322M = tested on: NCI-H322M
# Method in brief: as §1
# NCI-H520 = tested on: NCI-H520
# Method in brief: as §1
# NCI-H727 = tested on: NCI-H727
# Method in brief: as §1
# RERF-LC-KJ = tested on: RERF-LC-KJ
# Method in brief: as §1
# NCI-H596 = tested on: NCI-H596
# Method in brief: as §1
# NCI-H1915 = tested on: NCI-H1915
# Method in brief: as §1
# NCI-H661 = tested on: NCI-H661
# Method in brief: as §1
# LXF-289 = tested on: LXF-289
# Method in brief: as §1
# SW 900 = tested on: SW 900
# Method in brief: as §1
# NCI-H1563 = tested on: NCI-H1563
# Method in brief: as §1
# NCI-H3122 = tested on: NCI-H3122
# Method in brief: as §1
# NCI-H1755 = tested on: NCI-H1755
# Method in brief: as §1
# NCI-H2347 = tested on: NCI-H2347
# Method in brief: as §1
# NCI-H441 = tested on: NCI-H441
# Method in brief: as §1
smiles,measurement,setting,value
Cc1sc2c(c1C)C(c1ccc(Cl)cc1)=N[C@@H](CC(=O)OC(C)(C)C)c1nnc(C)n1-2 [JQ1] + COc1cc2c(Oc3ccc(NC(=O)C4(C(=O)Nc5ccc(F)cc5)CC4)cc3F)ccnc2cc1OCCCN1CCOCC1 [Foretinib] (partner 0.25 µM),relative viability,SK-MES-1; first compound 0.04 µM,0.817
same,relative viability,SK-MES-1; first compound 0.1265 µM,0.642
same,relative viability,SK-MES-1; first compound 0.4 µM,0.675
same,relative viability,SK-MES-1; first compound 1.265 µM,0.359
same,relative viability,SK-MES-1; first compound 4 µM,0.333
same,relative viability,NCI-H1651; first compound 0.04 µM,0.904
same,relative viability,NCI-H1651; first compound 0.1265 µM,0.787
same,relative viability,NCI-H1651; first compound 0.4 µM,0.625
same,relative viability,NCI-H1651; first compound 1.265 µM,0.352
same,relative viability,NCI-H1651; first compound 4 µM,0.365
same,relative viability,NCI-H460; first compound 0.04 µM,0.901
same,relative viability,NCI-H460; first compound 0.1265 µM,0.932
same,relative viability,NCI-H460; first compound 0.4 µM,0.628
same,relative viability,NCI-H460; first compound 1.265 µM,0.12
same,relative viability,NCI-H460; first compound 4 µM,0.112
same,relative viability,LCLC-103H; first compound 0.04 µM,0.765
same,relative viability,LCLC-103H; first compound 0.1265 µM,0.6
same,relative viability,LCLC-103H; first compound 0.4 µM,0.562
same,relative viability,LCLC-103H; first compound 1.265 µM,0.481
same,relative viability,LCLC-103H; first compound 4 µM,0.301
same,relative viability,NCI-H1355; first compound 0.04 µM,0.925
same,relative viability,NCI-H1355; first compound 0.1265 µM,0.936
same,relative viability,NCI-H1355; first compound 0.4 µM,0.735
same,relative viability,NCI-H1355; first compound 1.265 µM,0.677
same,relative viability,NCI-H1355; first compound 4 µM,0.562
same,relative viability,PC-14; first compound 0.04 µM,0.906
same,relative viability,PC-14; first compound 0.1265 µM,0.645
same,relative viability,PC-14; first compound 0.4 µM,0.625
same,relative viability,PC-14; first compound 1.265 µM,0.582
same,relative viability,PC-14; first compound 4 µM,0.477
same,relative viability,NCI-H322M; first compound 0.04 µM,0.955
same,relative viability,NCI-H322M; first compound 0.1265 µM,1.15
same,relative viability,NCI-H322M; first compound 0.4 µM,0.753
same,relative viability,NCI-H322M; first compound 1.265 µM,0.513
same,relative viability,NCI-H322M; first compound 4 µM,0.441
same,relative viability,NCI-H520; first compound 0.04 µM,0.732
same,relative viability,NCI-H520; first compound 0.1265 µM,0.793
same,relative viability,NCI-H520; first compound 0.4 µM,0.81
same,relative viability,NCI-H520; first compound 1.265 µM,0.35
same,relative viability,NCI-H520; first compound 4 µM,0.277
same,relative viability,NCI-H727; first compound 0.04 µM,0.841
same,relative viability,NCI-H727; first compound 0.1265 µM,0.864
same,relative viability,NCI-H727; first compound 0.4 µM,0.537
same,relative viability,NCI-H727; first compound 1.265 µM,0.336
same,relative viability,NCI-H727; first compound 4 µM,0.438
same,relative viability,RERF-LC-KJ; first compound 0.04 µM,0.939
same,relative viability,RERF-LC-KJ; first compound 0.1265 µM,0.88
same,relative viability,RERF-LC-KJ; first compound 0.4 µM,0.942
same,relative viability,RERF-LC-KJ; first compound 1.265 µM,0.748
same,relative viability,RERF-LC-KJ; first compound 4 µM,0.555
same,relative viability,NCI-H596; first compound 0.04 µM,0.951
same,relative viability,NCI-H596; first compound 0.1265 µM,0.61
same,relative viability,NCI-H596; first compound 0.4 µM,0.466
same,relative viability,NCI-H596; first compound 1.265 µM,0.322
same,relative viability,NCI-H596; first compound 4 µM,0.225
same,relative viability,NCI-H1915; first compound 0.04 µM,1.09
same,relative viability,NCI-H1915; first compound 0.1265 µM,1.03
same,relative viability,NCI-H1915; first compound 0.4 µM,0.732
same,relative viability,NCI-H1915; first compound 1.265 µM,0.653
same,relative viability,NCI-H1915; first compound 4 µM,0.449
same,relative viability,NCI-H661; first compound 0.04 µM,1.04
same,relative viability,NCI-H661; first compound 0.1265 µM,0.945
same,relative viability,NCI-H661; first compound 0.4 µM,1.03
same,relative viability,NCI-H661; first compound 1.265 µM,0.7
same,relative viability,NCI-H661; first compound 4 µM,0.668
same,relative viability,LXF-289; first compound 0.04 µM,0.955
same,relative viability,LXF-289; first compound 0.1265 µM,0.978
same,relative viability,LXF-289; first compound 0.4 µM,0.762
same,relative viability,LXF-289; first compound 1.265 µM,0.758
same,relative viability,LXF-289; first compound 4 µM,0.69
same,relative viability,SW 900; first compound 0.04 µM,0.699
same,relative viability,SW 900; first compound 0.1265 µM,1.06
same,relative viability,SW 900; first compound 0.4 µM,0.377
same,relative viability,SW 900; first compound 1.265 µM,0.224
same,relative viability,SW 900; first compound 4 µM,0.188
same,relative viability,NCI-H1563; first compound 0.04 µM,0.96
same,relative viability,NCI-H1563; first compound 0.1265 µM,0.733
same,relative viability,NCI-H1563; first compound 0.4 µM,0.756
same,relative viability,NCI-H1563; first compound 1.265 µM,0.681
same,relative viability,NCI-H1563; first compound 4 µM,0.692
same,relative viability,NCI-H3122; first compound 0.04 µM,1.04
same,relative viability,NCI-H3122; first compound 0.1265 µM,0.814
same,relative viability,NCI-H3122; first compound 0.4 µM,0.766
same,relative viability,NCI-H3122; first compound 1.265 µM,0.698
same,relative viability,NCI-H3122; first compound 4 µM,0.532
same,relative viability,NCI-H1755; first compound 0.04 µM,0.896
same,relative viability,NCI-H1755; first compound 0.1265 µM,0.831
same,relative viability,NCI-H1755; first compound 0.4 µM,0.945
same,relative viability,NCI-H1755; first compound 1.265 µM,0.793
same,relative viability,NCI-H1755; first compound 4 µM,0.634
same,relative viability,NCI-H2347; first compound 0.04 µM,1.04
same,relative viability,NCI-H2347; first compound 0.1265 µM,1.15
same,relative viability,NCI-H2347; first compound 0.4 µM,1.02
same,relative viability,NCI-H2347; first compound 1.265 µM,0.842
same,relative viability,NCI-H2347; first compound 4 µM,0.393
same,relative viability,NCI-H441; first compound 0.04 µM,1.08
same,relative viability,NCI-H441; first compound 0.1265 µM,0.981
same,relative viability,NCI-H441; first compound 0.4 µM,0.842
same,relative viability,NCI-H441; first compound 1.265 µM,0.832
same,relative viability,NCI-H441; first compound 4 µM,0.57
